Data: patent US12544417B2, “Oral film and stick jelly for improving absorption in the oral mucosa, antioxidant activity, anti-inflammatory activity, and liver function of humans and companion animals” (ESTHER FORMULA CO., LTD., priority 2022, dated 2026)

Experiment: DPPH-free radical scavenging
Format: biochemical
Conditions: ascorbic acid 100 μg/mL, positive control group
Description: 1% of the oral disintegrating film (Example 1-1), the oral mucosal adhesive film (Example 3-1), and the stick jelly (Example 4-1) were homogeneously dissolved, and centrifuged at 10,000 rpm and at 4° C. for 5 minutes to prepare a CFE (cell-free extract). 3.0 mL of a […] (DPPH) solution (5 mg/100 mL ethanol) was mixed with 500 μL of the prepared CFE, and the same amount of ethanol, MRS solution, and ascorbic acid (100 μg/mL) were used as a control group, a blank, and a comparative group, respectively. Then, the result was mixed with the DPPH solution and incubated in a dark room for 30 minutes, absorbance at 517 nm was measured, and the antioxidant activity was converted into % using Equation 1 below. [formula]

## O=C1O[C@H]([C@@H](O)CO)C(O)=C1O [ascorbic acid]
  DPPH-free radical scavenging (%): 90%
